Laboratory results published in patent US8048899B2, “Compounds which selectively modulate the CB2 receptor” (Boehringer Ingelheim International GmbH, priority 2008, dated 2011).

What was measured:
human CB1R = target: T1, human CB1R (Homo sapiens, UniProt P21554); assay: CB1R mediated modulation of cAMP synthesis; assay type: cell-based
T1 construct: host or cells: CHO cells
Experimental: C. CB1R Mediated Modulation of cAMP Synthesis:
Compounds of the invention are evaluated for their CB1 agonist or inverse agonistic activity in accordance with the following experimental method.
(§1) CHO cells expressing human CB1R (Euroscreen) are plated at a density of 5000 cells per well in 384 well plates and incubated overnight at 37° C. After removing the media, the cells are treated with test compounds diluted in stimulation buffer containing 1 mM IBMX, 0.25% BSA and 10 uM Forskolin. The assay is incubated for 30 minutes at 37° C. Cells are lysed and the cAMP concentration is measured using DiscoverX-XS cAMP kit, following the manufacturer's protocol. In this setting, agonists will decrease forskolin induced production of cAMP while inverse agonists will further increase forskolin induced production of cAMP. EC50 of agonists are calculated as follows. The maximal amount of cAMP produced by forskolin compared to the level of cAMP inhibited by 1 uM CP55940 is defined as 100%. […] Data is analyzed using a four-parameter logistic model. (Model 205 of XLfit 4.0).

human CB2R = target: T2, human CB2R (Homo sapiens, UniProt P34972); assay: CB2R mediated modulation of cAMP synthesis; assay type: cell-based
T2 construct: host or cells: CHO cells
Experimental: B. CB2R Mediated Modulation of cAMP Synthesis:
Compounds of the invention are evaluated for their CB2 agonist or inverse agonistic activity in accordance with the following experimental method.
as §1, with “CB2R” for “CB1R”

T1 sequence (P21554 whole entry): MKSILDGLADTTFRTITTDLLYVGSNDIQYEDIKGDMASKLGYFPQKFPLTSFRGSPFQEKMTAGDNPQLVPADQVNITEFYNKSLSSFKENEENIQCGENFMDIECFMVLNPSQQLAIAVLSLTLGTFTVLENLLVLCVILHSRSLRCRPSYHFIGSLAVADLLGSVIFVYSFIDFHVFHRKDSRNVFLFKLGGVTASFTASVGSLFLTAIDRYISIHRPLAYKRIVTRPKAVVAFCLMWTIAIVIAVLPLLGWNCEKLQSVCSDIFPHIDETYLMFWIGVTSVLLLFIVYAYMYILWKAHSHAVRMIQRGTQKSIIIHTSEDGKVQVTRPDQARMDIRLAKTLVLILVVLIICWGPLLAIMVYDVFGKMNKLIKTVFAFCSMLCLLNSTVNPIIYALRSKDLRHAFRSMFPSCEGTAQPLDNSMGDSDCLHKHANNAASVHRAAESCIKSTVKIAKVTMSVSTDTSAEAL
T2 sequence (P34972 whole entry): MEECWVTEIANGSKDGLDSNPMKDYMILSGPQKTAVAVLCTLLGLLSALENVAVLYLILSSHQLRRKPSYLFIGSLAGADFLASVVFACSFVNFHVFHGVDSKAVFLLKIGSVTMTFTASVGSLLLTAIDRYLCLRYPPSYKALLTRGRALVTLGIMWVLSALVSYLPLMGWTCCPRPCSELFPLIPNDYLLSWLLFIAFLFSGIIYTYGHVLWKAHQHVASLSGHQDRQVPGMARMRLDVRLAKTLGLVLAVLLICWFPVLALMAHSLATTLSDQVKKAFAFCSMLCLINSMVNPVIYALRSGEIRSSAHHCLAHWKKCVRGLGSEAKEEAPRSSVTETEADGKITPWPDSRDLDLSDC

| Compound | EC50 (human CB1R) | EC50 (human CB2R) |
| --- | --- | --- |
| COc1ccc(-c2nnc(NC(=O)C(C)(C)S(=O)(=O)CC3CCOCC3)[nH]2)cc1 | > 50000 nM | 9.5 nM |
| CC(C)(CO)c1cc(NC(=O)C(C)(C)S(=O)(=O)C2CCCC2)on1 | > 20000 nM | 75 nM |
| CC(C)(CO)c1cc(NC(=O)C(C)(C)S(=O)(=O)CC2CCC2)on1 | > 20000 nM | 82 nM |
| COc1ccc(-c2nnc(NC(=O)C(C)(C)S(=O)(=O)C3CCOCC3)[nH]2)cc1 | > 20000 nM | 0.66 nM |
| CC(C)(CO)c1cc(NC(=O)C(C)(C)S(=O)(=O)c2ccc(F)cc2)on1 | > 20000 nM | 30 nM |
| CC(C)(C(=O)Nc1nnc(-c2ccc(O)cc2)[nH]1)S(=O)(=O)CC1CCOCC1 | > 20000 nM | 100 nM |
| CC(C)(C(=O)Nc1nnc(-c2ccc(O)cc2)[nH]1)S(=O)(=O)C1CCOCC1 | > 20000 nM | 5 nM |
| COCC(C)(C)c1cc(NC(=O)C(C)(C)S(=O)(=O)CC2CCOCC2)on1 | > 20000 nM | 29 nM |
| COc1ccc(-c2nnc(NC(=O)C(C)(C)S(=O)(=O)C3CCCC3)[nH]2)cc1 | > 20000 nM | 14 nM |
| COc1ccc(-c2nnc(NC(=O)C(C)(C)S(=O)(=O)CC(C)C)[nH]2)cc1 | > 20000 nM | 69 nM |
| COc1ccc(-c2nnc(NC(=O)C(C)(C)S(=O)(=O)C3CCN(S(C)(=O)=O)CC3)[nH]2)cc1 | 29400 nM | 16 nM |
| COc1ccc(-c2nnc(NC(=O)C(C)(C)S(=O)(=O)c3ccc(S(C)(=O)=O)cc3F)[nH]2)cc1 | > 20000 nM | 2.1 nM |
| COc1ccc(-c2nnc(NC(=O)C(C)(C)S(=O)(=O)N3CCC3)[nH]2)cc1 | > 20000 nM | 32 nM |
| COc1ccc(-c2nnc(NC(=O)C(C)(C)S(=O)(=O)N3CC[C@@H](F)C3)[nH]2)cc1 | > 50000 nM | 33 nM |
| COCC(C)(C)c1cc(NC(=O)C(C)(C)S(=O)(=O)C2CCOCC2)on1 | > 20000 nM | 3.1 nM |
| CC(C)(CO)c1cc(NC(=O)C(C)(C)S(=O)(=O)C2CCN(S(C)(=O)=O)CC2)on1 | > 50000 nM | 14 nM |
| CC(C)(CO)c1cc(NC(=O)C(C)(C)S(=O)(=O)CC2CCC(=O)CC2)on1 | > 50000 nM | 68 nM |
| CC(C)(CO)c1cc(NC(=O)C(C)(C)S(=O)(=O)C2CCOCC2)no1 | > 50000 nM | 33 nM |
| CC(C)(CO)c1cc(NC(=O)C(C)(C)S(=O)(=O)CCCC(F)(F)F)no1 | > 20000 nM | 25 nM |

| Compound | EC50 (human CB1R) | EC50 (human CB2R) |
| --- | --- | --- |
| CC(C)(CO)c1nnc(NC(=O)C(C)(C)S(=O)(=O)C2CCOCC2)s1 | > 50000 nM | 48 nM |
| COc1ccc(-c2nnc(NC(=O)C(C)(C)S(=O)(=O)C[C@H]3CCOC3)[nH]2)cc1 | > 50000 nM | 90 nM |
| COc1ccc(-c2nnc(NC(=O)C(C)(C)S(=O)(=O)C[C@@H]3CCOC3)[nH]2)cc1 | > 50000 nM | 240 nM |
| COCC(C)(C)c1cc(NC(=O)C(C)(C)S(=O)(=O)C2CCOCC2)no1 | > 50000 nM | 3.5 nM |
| CC(C)(C(=O)Nc1cc(C2(CO)CCC2)no1)S(=O)(=O)C1CCOCC1 | > 50000 nM | 77 nM |
| CC(C)(C(=O)Nc1cc(C2(CO)CCCC2)no1)S(=O)(=O)C1CCOCC1 | > 50000 nM | 15 nM |
| CC(C)(C(=O)Nc1cc(C2(CO)CCCC2)no1)S(=O)(=O)CC1CCOCC1 | > 50000 nM | 206 nM |
| CCOCC(C)(C)c1cc(NC(=O)C(C)(C)S(=O)(=O)C2CCOCC2)on1 | > 20000 nM | 3.6 nM |
| CC(C)(C(=O)Nc1cc(C2(CO)CCCCC2)no1)S(=O)(=O)C1CCOCC1 | > 20000 nM | 38 nM |
| COc1ccc(-c2nnc(NC(=O)C(C)(C)S(=O)(=O)CC3CC3)[nH]2)cc1 | > 50000 nM | 32 nM |
| CC(C)(C(=O)Nc1cc(C2(CO)CCC2)no1)S(=O)(=O)CC1CCC1 | > 50000 nM | 74 nM |
| CC(C)CCS(=O)(=O)C(C)(C)C(=O)Nc1cc(C2(CO)CC2)no1 | > 20000 nM | 14 nM |
| CC[C@H](C)S(=O)(=O)C(C)(C)C(=O)Nc1cc(C2(CO)CCCC2)no1 | > 20000 nM | 82 nM |
| CC(C)(C(=O)Nc1cc(C2(CO)CCCC2)no1)S(=O)(=O)C1CCCC1 | > 20000 nM | 45 nM |
| CC(C)(CO)c1cc(NC(=O)C(C)(C)S(=O)(=O)c2ccc(F)cc2)no1 | > 50000 nM | 45 nM |
| CC(C)(CO)c1cc(NC(=O)C(C)(C)S(=O)(=O)CC2CCC2)no1 | > 50000 nM | 96 nM |
| CC(C)(CO)c1cc(NC(=O)C(C)(C)S(=O)(=O)c2cccc(F)c2F)no1 | > 50000 nM | 69 nM |
| COc1ccccc1-c1n[nH]c(NC(=O)C(C)(C)S(=O)(=O)CC2CC2)n1 | > 20000 nM | 15 nM |
| CC(C)(C(=O)Nc1nc(-c2ccc(O)cc2)n[nH]1)S(=O)(=O)C1CCCC1 | > 50000 nM | 36 nM |

| Compound | EC50 (human CB1R) | EC50 (human CB2R) |
| --- | --- | --- |
| CC(C)(C(=O)Nc1nc(-c2ccc(O)cc2)n[nH]1)S(=O)(=O)CC1CCC1 | > 50000 nM | 22 nM |
| COc1ccc(-c2nnc(NC(=O)C(C)(C)S(=O)(=O)CC3CC3)[nH]2)c(F)c1 | > 50000 nM | 34 nM |
| COc1ccc(-c2nnc(NC(=O)C(C)(C)S(=O)(=O)C3CCOCC3)[nH]2)c(F)c1 | > 50000 nM | 13 nM |
| CC(C)(C(=O)Nc1nc(-c2ccccc2O)n[nH]1)S(=O)(=O)C1CCOCC1 | > 20000 nM | 30 nM |
| CC[C@@H](C)S(=O)(=O)C(C)(C)C(=O)Nc1nnc(-c2ccc(OC)cc2)[nH]1 | > 50000 nM | 83 nM |
| CC[C@H](C)S(=O)(=O)C(C)(C)C(=O)Nc1nnc(-c2ccc(OC)cc2)[nH]1 | > 50000 nM | 47 nM |
| CC(C)(C(=O)Nc1nnc(-c2ccc(O)cc2F)[nH]1)S(=O)(=O)C1CCOCC1 | > 50000 nM | 7.7 nM |
| CC(C)(C(=O)Nc1nnc(-c2ccc(O)cc2)[nH]1)S(=O)(=O)CC1CC1 | > 50000 nM | 34 nM |
| COc1ccc(-c2nnc(NC(=O)C(C)(C)S(=O)(=O)CC3CCC3)[nH]2)c(F)c1 | > 20000 nM | 7.6 nM |
| CC(C)(C(=O)Nc1nnc(-c2ccc(O)cc2F)[nH]1)S(=O)(=O)CC1CCC1 | 35000 nM | 9.4 nM |
| CC(C)(O)c1cc(NC(=O)C(C)(C)S(=O)(=O)C2CCOCC2)on1 | > 50000 nM | 88 nM |
| CC(C)(O)c1cc(NC(=O)C(C)(C)S(=O)(=O)CCCC(F)(F)F)on1 | > 20000 nM | 49 nM |
| CC(C)CCS(=O)(=O)C(C)(C)C(=O)Nc1nnc(C(C)(C)CO)s1 | > 20000 nM | 18 nM |
| CO[C@H]1CC[C@@H](S(=O)(=O)C(C)(C)C(=O)Nc2cc(C(C)(C)CO)no2)CC1 | > 50000 nM | 57 nM |
| CC(C)(CO)c1cc(NC(=O)C(C)(C)S(=O)(=O)CC[C@H]2CCOC2)on1 | > 20000 nM | 6.2 nM |
| CC(C)(CO)c1cc(NC(=O)C(C)(C)S(=O)(=O)CC[C@@H]2CCOC2)on1 | > 50000 nM | 14 nM |
| COCC(C)(C)c1cc(NC(=O)C(C)(C)S(=O)(=O)C2CCN(S(C)(=O)=O)CC2)no1 | > 50000 nM | 6.2 nM |
| CC(C)(CO)c1cc(NC(=O)C(C)(C)S(=O)(=O)C2CCN(S(C)(=O)=O)CC2)no1 | > 50000 nM | 91 nM |
| CC(C)(CO)c1nnc(NC(=O)C(C)(C)S(=O)(=O)C[C@H]2CCCCO2)s1 | > 50000 nM | 28 nM |
